Test results taken from PMC6746686, “Physicochemical Profiling of Baicalin Along with the Development and Characterization of Cyclodextrin Inclusion Complexes” (AAPS PharmSciTech, 2019).
In brackets after ≈: the same amount, converted by molar mass. Where two headings read alike, the source gives them in different places.

Key:
[1] = NMR-pH titrations (acid dissociation constants, species distribution); type: physicochemical; conditions: for pKa: aqueous solution, 95% (v/v) H2O and 5% (v/v) D2O; for mole fraction of the monoanionic form ([H2B]−): calculated from pKa values
Description: NMR-pH titrations were performed on a Varian VNMRS spectrometer (600 MHz for ^1H). Spectra were recorded at 25°C. Titrations were carried out in solutions containing 95% (v/v) H2O and 5% (v/v) D2O, with the addition of small amounts of 0.1 M HCl and NaOH. One molar NaOH and solid NaOH crystals were also used to achieve highly basic pH values. The ionic strength was kept at 0.15 M by the presence of NaCl. The concentration of baicalin and its methyl ester was 1.0 × 10^−3 M and ascorbic acid was used in large excess (5.0 × 10^−3 M) to prevent the oxidation of the studied catechol molecules in alkaline solutions. The sample volume was 600 μl. NMR spectra were referenced to the internal standard DSS (sodium 3-(trimethylsilyl)-1-propanesulfonate). The water signal was suppressed by presaturation. Spectra were processed with VNMRj 3.2a software. pH values were read on a Metrohm 2.780.0010 precision pH meter with a 6.0258.600 Unitrode glass Pt 1000 electrode (Metrohm AG, Herisau, Switzerland). The pH-potentiometric system was calibrated using pH 1.68, 4.01, 6.87, 9.18 aqueous buffer solutions. In highly basic solutions, pH was measured by NMR-pH indicator molecules as well to avoid the uncertainty of the glass electrode pH-meter readings in such solutions [24]. The concentration of these pH indicators was 1.0 mM. For the analysis of NMR titration curves of proton chemical shifts versus pH, the software Origin Pro 8 (OriginLab Corp., Northampton,MA, USA) was used.
In baicalin, there are 12 protons connected to carbon atoms, but in ^1H NMR spectra, only the singlets of H8 and H3 on ring A and the doublet of the aromatic H2’,6′ protons can be easily assigned, while the other aromatic protons occur in complex spectrum of multiplets. The protons of the monosaccharide unit overlap with each other and with the signals of the antioxidant ascorbic acid. The suppression of the large water signal also interferes with the observation of certain NMR signals. Thus, during the NMR-pH titration, we followed the above-mentioned three chemical shift signal sets.
Since protonation processes are instantaneous on the NMR chemical shift time scale, the observed chemical shift (δ^obsd) of a certain nucleus can be expressed as a weighted average of chemical shifts of the non-, mono-, di- and triprotonated forms of baicalin (B):2 δ^obsd=δB^3‐xB^3‐+δHB^2‐xHB^2‐+δH2B^−xH2B^−+δH3BxH3B where weighting factors are mole fractions that can be expressed in terms of stepwise protonation macroconstants and the actual hydrogen ion concentration. For example, xH2B^− is:3 xH2B^−=K1K2H^+^2/1+K1H^++K1K2H^+^2+K1K2K3H^+^3
Combining and rearranging Eqs. (2) and (3) yield Eq. (4) that can be directly fitted to the ^1H-NMR titration curve of each nucleus observed.4 δ^obsd=δB^3‐+δHB^2‐K1H^++δH2B^−K1K2H^+^2+δH3BK1K2K3H^+^3/1+K1H^++K1K2H^+^2+K1K2K3H^+^3
The logarithms of the obtained protonation constants correspond to the negative logarithms of dissociation constants, namely pKa1 = logK3, pKa2 = logK2 and pKa3 = logK1 [28].

[2] = parameters: method as in PMID 19722585; conditions: cited from earlier work
[3] = parameters: method as in PMID 16107266; conditions: cited from earlier work
[4] = Thermodynamic solubility by saturation shake-flask method; type: physicochemical; conditions: 37°C
Description: A total of 0.94 g of 1 M HCl and 0.35 g of NaCl were diluted and dissolved to 1000 ml with distilled water and used as simulated gastric fluid (SGF) with pH 1.2. This medium served as solvent for the measurement of intrinsic solubility of baicalin.
A total of 250 ml of 0.2 M […] and 77 ml of 0.2 M NaOH were homogenized and diluted to 1000 ml with distilled water. This medium served as simulated intestinal fluid (SIF) with pH 6.8.
Blank buffer of FaSSGF pH 1.6 (1.99 g NaCl dissolved in 900 ml distilled water, adjusted the pH to 1.6 with 1 M HCl and filled to 1000 ml with distilled water) and phosphate buffer pH 6.5 (0.42 g NaOH pellets + 3.95 g NaH2PO4 monohydrate + 6.19 g NaCl dissolved in 900 ml distilled water, adjusted the pH to 6.5 with either 1 M NaOH or 1 M HCl and filled to 1000 ml with distilled water) were prepared as stock solutions.
FaSSGF was produced from blank buffer of FaSSGF pH 1.6, which was completed by 0.08 mM sodium taurocholate, 0.02 mM lecithin, 0.1 mg/ml pepsin and has osmolality of 120 ± 2.5 mOsmol/kg. To obtain the FaSSIF medium, 100 ml of blank phosphate buffer (pH 6.5) was made up by 3 mM sodium taurocholate and 0.75 mM lecithin. FaSSIF has an osmolality of 270 ± 10 mOsmol/kg.
The thermodynamic solubility of baicalin in various media was determined by saturation shake-flask method based on the method of Baka et al.. Briefly, 10 mg of baicalin was added to 5 ml of each solvent in sealed vials. All samples were stirred (approx. 500 rpm) and thermostated (IKA RT-5 power heatable magnetic stirrer, IKA Work Inc., USA) at 37 ± 0.5°C for 24 h allowing it to achieve thermodynamic equilibrium. After this period, 24 h of sedimentation cycle was adopted without stirring at 37 ± 0.5°C. To improve the efficacy of phase-separation, the saturated supernatant of samples was centrifuged at 14,000 rpm for 15 min (Herolab MicroGen 16, Herolab GmbH, Wiesloch, Germany). The aliquots (250 μl) taken for solubility experiments were suitably diluted with blank buffers and the absorbance was measured at λ = 316 nm by UV spectroscopy (Agilent 8453 UV-Visible Spectrophotometer, Agilent Technologies Ltd., USA). […] Ideally, λmax selected for the analysis of drug should not show any interference due to solvents and excipients present in the dissolution medium. […] In the solubility study, thus, λmax 316 nm was selected for the quantification of baicalin. […] All experiments were repeated three times and results were calculated from the linear calibration curve of baicalin in each media. Data are expressed as mean ± SD (μg/ml).

[5] = Stability in alkaline solution observed by NMR; type: physicochemical
Excerpt: Baicalin has three acidic functional moieties, one carboxyl and two phenolic hydroxyl groups. Proton transfer processes can be regarded either from the aspect of dissociation or association. Because of the acidic nature of baicalin, these processes will be characterized here in terms of acid dissociation constants (Ka). Carboxylic acids are typically orders of magnitude stronger than phenols. The determination of baicalin dissociation constants is hampered by its poor water solubility and sensitivity of oxidation of the catechol structure on its A ring. The acid/base properties of baicalin have been investigated earlier, resulting in pKa1, pKa2 and pKa3 values of 5.05, 7.6 and 10.1, respectively. […] We decided to undertake the characterization of baicalin by NMR-pH titrations, where the molecule was protected from oxidation by the antioxidant ascorbic acid up to pH ≈ 13.
NMR-pH titrations were performed on a Varian VNMRS spectrometer (600 MHz for ^1H). Spectra were recorded at 25°C. […] Spectra were processed with VNMRj 3.2a software. pH values were read on a Metrohm 2.780.0010 precision pH meter with a 6.0258.600 Unitrode glass Pt 1000 electrode (Metrohm AG, Herisau, Switzerland). […] In highly basic solutions, pH was measured by NMR-pH indicator molecules as well to avoid the uncertainty of the glass electrode pH-meter readings in such solutions [24]. […]

[6] = Distribution coefficient measurements by the stir-flask method (octanol/water); type: physicochemical
Description: The distribution coefficients were calculated from the absorbance of the molecules before and after partitioning at several octanol/water phase ratios. For the pH control, a pH 7.40 phosphate buffer and a standardized HCl solution were used, with an ionic strength of 0.15 M in both cases. The pH of the phosphate buffer was measured using a Metrohm 6.0204.100 combined pH glass electrode and a Metrohm 780 pH meter. The concentration change of baicalin was followed by UV-absorbance measurements. […] Then, the two phases were intensively stirred for 2 h in thermostated double-walled glass cells at constant temperature (25 ± 0.1°C). After separation of the equilibrated phases and centrifugation, the concentration of baicalin was determined by UV spectrophotometry (Perkin-Elmer Lambda 15) at several values at 279 nm (λmax). The distribution coefficients were calculated from the absorbance of baicalin before and after partitioning. […]
For baicalin, the pH-dependent distribution coefficient is the sum of four products:5 DpH=ΣxiPi=xB^3‐PB^3‐+xHB^2‐PHB^2‐+xH2B^−PH2B^−+xH3BPH3B where xi mole fractions are the pH-dependent quantities, while Pi parameters are the pH-independent ones. […]
The mole fraction data can be calculated similarly as shown in Eq. (3); thus, the partition coefficient of the anionic form can be obtained. […]

[7] = parameters: method as in PMID 19722585; conditions: reported as "1.27 (pH 7)"; cited from earlier work
[8] = parameters: method as in PMID 26579386; conditions: cited from earlier work
[9] = NMR-pH titration, 25°C, ionic strength 0.15 M, ascorbic acid as antioxidant
[10] = UV-pH titration, called highly dubious by the authors

COC(=O)[C@H]1O[C@@H](Oc2cc3oc(-c4ccccc4)cc(=O)c3c(O)c2O)[C@H](O)[C@@H](O)[C@@H]1O [Baicalin methyl ester]
pKa1 (acid dissociation constant) [1, 9]: 8.78
pKa2 (acid dissociation constant) [1, 9]: > 14

O=C(O)[C@H]1O[C@@H](Oc2cc3oc(-c4ccccc4)cc(=O)c3c(O)c2O)[C@H](O)[C@@H](O)[C@@H]1O [Baicalin, 7-D-glucuronic acid-5,6-dihydroxyflavone]
pKa2 [2, 10]: 7.6
pKa3 [2, 10]: 10.1
pKa1 ([2]; earlier investigation): 5.05
absolute bioavailability [3]: 2.2 ± 0.2%
solubility thermodynamic at 24 h ([4]; distilled water (Aqua dest.), read-out: Thermodynamic solubility): 67 µg/mL (≈ 150 µM)
solubility thermodynamic at 24 h ([4]; fassgf or other biorelevant, thermodynamic from solid, pH 1.6 FaSSGF, read-out: Thermodynamic solubility): 33.2 µg/mL (≈ 74.4 µM)
solubility thermodynamic at 24 h ([4]; simulated gastric fluid (SGF), simulated gastric fluid, thermodynamic from solid, pH 1.2 SGF, read-out: Thermodynamic solubility (intrinsic solubility)): 11.6 µg/mL (≈ 26.1 µM)
solubility thermodynamic at 24 h ([4]; simulated intestinal fluid (SIF), fassgf or other biorelevant, thermodynamic from solid, pH 6.8 SIF, read-out: Thermodynamic solubility): 10500 µg/mL (≈ 23500 µM)
solubility thermodynamic at 24 h ([4]; thermodynamic from solid, pH 6.5 FaSSIF, read-out: Thermodynamic solubility): 8110 µg/mL (≈ 18200 µM)
stability in alkaline solution (decomposition) ([5]; NMR investigations, without antioxidant): rapidly decomposes above pH 9
stability in alkaline solution (oxidation) ([5]; in the presence of a large excess of ascorbic acid): rapid oxidation of baicalin above pH 13
difference between the lipophilicity of the neutral and the anionic form [6]: 2.56 log unit
logD at 2 h ([6]; standardized 0.15 M HCl solution, 25°C, SD in brackets, read-out: log D (characterizes the log P of the neutral form)): 1.28
log P [7]: 1.27
water solubility [8]: 54 µg/mL (≈ 121 µM)
pKa ([1]; NMR-pH titration, 25°C, ionic strength 0.15 M, ascorbic acid as antioxidant, read-out: pKa1 (acid dissociation constant)): 4.21
pKa ([1]; NMR-pH titration, 25°C, ionic strength 0.15 M, ascorbic acid as antioxidant, read-out: pKa2 (acid dissociation constant)): 8.56
pKa ([1]; NMR-pH titration, 25°C, ionic strength 0.15 M, ascorbic acid as antioxidant, read-out: pKa3 (acid dissociation constant)): > 14
mole fraction of the monoanionic form ([H2B]−) ([1]; pH 6.8 SIF): 98.0%
relative concentration of the dianionic form (HB2−) ([1]; pH 7.40, calculated from pKa values): 6.5%
mole fraction of the monoanionic form ([H2B]−) ([1]; pH of blood (pH 7.40)): 93.5%
